{"source": "ChEMBL document CHEMBL1201862", "about": "“PubChem BioAssay data set” (2004)", "assay_in_all_cases": "NCI-60 cell line screen, 48 h", "key": {"NCI-H23": {"test_system": "NCI-H23"}, "OVCAR-5": {"test_system": "OVCAR-5"}, "BT-549": {"test_system": "BT-549"}, "SF-539": {"test_system": "SF-539"}, "SNB-75": {"test_system": "SNB-75"}, "COLO 205": {"test_system": "COLO 205"}, "MDA-N": {"test_system": "MDA-N"}, "ACHN": {"test_system": "ACHN"}, "SF-268": {"test_system": "SF-268"}, "786-0": {"test_system": "786-0"}, "HOP-92": {"test_system": "HOP-92"}, "UACC-62": {"test_system": "UACC-62"}, "SF-295": {"test_system": "SF-295"}, "SK-OV-3": {"test_system": "SK-OV-3"}, "MOLT-4": {"test_system": "MOLT-4"}, "SN12C": {"test_system": "SN12C"}, "CAKI-1": {"test_system": "CAKI-1"}, "SNB-19": {"test_system": "SNB-19"}, "SK-MEL-5": {"test_system": "SK-MEL-5"}, "DU-145": {"test_system": "DU-145"}, "HCT-15": {"test_system": "HCT-15"}, "RXF 393": {"test_system": "RXF 393"}, "HL-60": {"test_system": "HL-60"}, "SK-MEL-28": {"test_system": "SK-MEL-28"}, "SK-MEL-2": {"test_system": "SK-MEL-2"}, "MDA-MB-435": {"test_system": "MDA-MB-435"}, "LOX IMVI": {"test_system": "LOX IMVI"}, "KM12": {"test_system": "KM12"}, "NCI/ADR-RES": {"test_system": "NCI/ADR-RES"}, "K562": {"test_system": "K562"}, "PC-3": {"test_system": "PC-3"}, "HT-29": {"test_system": "HT-29"}, "Hs-578T": {"test_system": "Hs-578T"}, "SW-620": {"test_system": "SW-620"}, "HCC 2998": {"test_system": "HCC 2998"}, "OVCAR-4": {"test_system": "OVCAR-4"}, "NCI-H460": {"test_system": "NCI-H460"}, "Malme-3M": {"test_system": "Malme-3M"}, "M14": {"test_system": "M14"}, "NCI-H226": {"test_system": "NCI-H226"}, "IGROV-1": {"test_system": "IGROV-1"}, "OVCAR-8": {"test_system": "OVCAR-8"}, "EKVX": {"test_system": "EKVX"}, "MCF7": {"test_system": "MCF7"}, "UACC-257": {"test_system": "UACC-257"}, "UO-31": {"test_system": "UO-31"}, "HCT-116": {"test_system": "HCT-116"}, "TK-10": {"test_system": "TK-10"}, "NCI-H522": {"test_system": "NCI-H522"}, "MDA-MB-231": {"test_system": "MDA-MB-231"}, "CCRF-CEM": {"test_system": "CCRF-CEM"}, "T47D": {"test_system": "T47D"}, "OVCAR-3": {"test_system": "OVCAR-3"}, "SR": {"test_system": "SR"}, "HOP-62": {"test_system": "HOP-62"}, "A549": {"test_system": "A549"}, "RPMI-8226": {"test_system": "RPMI-8226"}, "U-251": {"test_system": "U-251"}}, "note": "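These data come from cells grown in 96-well plates and exposed to compound for 48 hours at five concentrations. Here, GI50 denotes the concentration required for 50% inhibition of growth.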 The source made the active and inactive calls. Cut-off read from the data, not from the text of the source: active = GI50 up to about 1.1 µM and inactive = higher."}
{"molecule": "Cc1cc(NS(=O)(=O)c2ccc(NC(=O)c3ccc4nc5ccccc5c(Nc5ccc(S(=O)(=O)Nc6cc(C)on6)cc5)c4c3)cc2)no1", "values": [{"measurement": "GI50", "setting": "NCI-H23", "result": "> 50 µM (inactive)"}, {"measurement": "GI50", "setting": "OVCAR-5", "result": "> 50 µM (inactive)"}, {"measurement": "GI50", "setting": "BT-549", "result": "> 50 µM (inactive)"}, {"measurement": "GI50", "setting": "SF-539", "result": "> 50 µM (inactive)"}, {"measurement": "GI50", "setting": "SNB-75", "result": "> 50 µM (inactive)"}, {"measurement": "GI50", "setting": "COLO 205", "result": "> 50 µM (inactive)"}, {"measurement": "GI50", "setting": "MDA-N", "result": "> 50 µM (inactive)"}, {"measurement": "GI50", "setting": "ACHN", "result": "> 50 µM (inactive)"}, {"measurement": "GI50", "setting": "SF-268", "result": "> 50 µM (inactive)"}, {"measurement": "GI50", "setting": "786-0", "result": "> 50 µM (inactive)"}, {"measurement": "GI50", "setting": "HOP-92", "result": "> 50 µM (inactive)"}, {"measurement": "GI50", "setting": "UACC-62", "result": "> 50 µM (inactive)"}, {"measurement": "GI50", "setting": "SF-295", "result": "> 50 µM (inactive)"}, {"measurement": "GI50", "setting": "SK-OV-3", "result": "> 50 µM (inactive)"}, {"measurement": "GI50", "setting": "MOLT-4", "result": "> 50 µM (inactive)"}, {"measurement": "GI50", "setting": "SN12C", "result": "> 50 µM (inactive)"}, {"measurement": "GI50", "setting": "CAKI-1", "result": "> 50 µM (inactive)"}, {"measurement": "GI50", "setting": "SNB-19", "result": "> 50 µM (inactive)"}, {"measurement": "GI50", "setting": "SK-MEL-5", "result": "> 50 µM (inactive)"}, {"measurement": "GI50", "setting": "DU-145", "result": "> 50 µM (inactive)"}, {"measurement": "GI50", "setting": "HCT-15", "result": "> 50", "unit": "µM"}, {"measurement": "GI50", "setting": "RXF 393", "result": "> 50 µM (inactive)"}, {"measurement": "GI50", "setting": "HL-60", "result": "> 50 µM (inactive)"}, {"measurement": "GI50", "setting": "SK-MEL-28", "result": "> 50 µM (inactive)"}, {"measurement": "GI50", "setting": "SK-MEL-2", "result": "> 50 µM (inactive)"}, {"measurement": "GI50", "setting": "MDA-MB-435", "result": "> 50 µM (inactive)"}, {"measurement": "GI50", "setting": "LOX IMVI", "result": "> 50 µM (inactive)"}, {"measurement": "GI50", "setting": "KM12", "result": "> 50 µM (inactive)"}, {"measurement": "GI50", "setting": "NCI/ADR-RES", "result": "> 50 µM (inactive)"}, {"measurement": "GI50", "setting": "K562", "result": "> 50 µM (inactive)"}, {"measurement": "GI50", "setting": "PC-3", "result": "> 50 µM (inactive)"}, {"measurement": "GI50", "setting": "HT-29", "result": "> 50 µM (inactive)"}, {"measurement": "GI50", "setting": "Hs-578T", "result": "> 50 µM (inactive)"}, {"measurement": "GI50", "setting": "SW-620", "result": "> 50 µM (inactive)"}, {"measurement": "GI50", "setting": "HCC 2998", "result": "> 50 µM (inactive)"}, {"measurement": "GI50", "setting": "OVCAR-4", "result": "> 50 µM (inactive)"}, {"measurement": "GI50", "setting": "NCI-H460", "result": "> 50 µM (inactive)"}, {"measurement": "GI50", "setting": "Malme-3M", "result": "> 50 µM (inactive)"}, {"measurement": "GI50", "setting": "M14", "result": "> 50 µM (inactive)"}, {"measurement": "GI50", "setting": "NCI-H226", "result": "> 50 µM (inactive)"}, {"measurement": "GI50", "setting": "IGROV-1", "result": "> 50 µM (inactive)"}, {"measurement": "GI50", "setting": "OVCAR-8", "result": "> 50 µM (inactive)"}, {"measurement": "GI50", "setting": "EKVX", "result": "> 50 µM (inactive)"}, {"measurement": "GI50", "setting": "MCF7", "result": "> 50 µM (inactive)"}, {"measurement": "GI50", "setting": "UACC-257", "result": "> 50 µM (inactive)"}, {"measurement": "GI50", "setting": "UO-31", "result": "> 50 µM (inactive)"}, {"measurement": "GI50", "setting": "HCT-116", "result": "> 50 µM (inactive)"}, {"measurement": "GI50", "setting": "TK-10", "result": "> 50 µM (inactive)"}, {"measurement": "GI50", "setting": "NCI-H522", "result": "> 50 µM (inactive)"}, {"measurement": "GI50", "setting": "MDA-MB-231", "result": "> 50 µM (inactive)"}, {"measurement": "GI50", "setting": "CCRF-CEM", "result": "> 50 µM (inactive)"}, {"measurement": "GI50", "setting": "T47D", "result": "> 50 µM (inactive)"}, {"measurement": "GI50", "setting": "OVCAR-3", "result": "> 50 µM (inactive)"}, {"measurement": "GI50", "setting": "SR", "result": "> 50 µM (inactive)"}, {"measurement": "GI50", "setting": "HOP-62", "result": "> 50 µM (inactive)"}, {"measurement": "GI50", "setting": "A549", "result": "> 50 µM (inactive)"}, {"measurement": "GI50", "setting": "RPMI-8226", "result": "> 50 µM (inactive)"}, {"measurement": "GI50", "setting": "U-251", "result": "> 50 µM (inactive)"}]}
